# Reference: the NIST ThermoML archive (doi:10.1016/j.fluid.2005.05.023)
# ± gives the expanded uncertainty stated by the source.
# Test: xn = mol fraction of the nth substance listed
# Conditions: Liquid, Vibrating tube method, x1 = 1
smiles,measurement,setting,value
CCO [ethanol] + Cc1ccccc1,mass density,"283.15 K, 100 kPa",798 ± 0.2 kg/m3
same,mass density,"283.15 K, 5000 kPa",802 ± 0.3 kg/m3
same,mass density,"283.15 K, 10000 kPa",805.9 ± 0.3 kg/m3
same,mass density,"283.15 K, 15000 kPa",809.5 ± 0.3 kg/m3
same,mass density,"283.15 K, 20000 kPa",813 ± 0.3 kg/m3
same,mass density,"283.15 K, 25000 kPa",816.4 ± 0.3 kg/m3
same,mass density,"283.15 K, 30000 kPa",819.7 ± 0.4 kg/m3
same,mass density,"283.15 K, 35000 kPa",822.8 ± 0.4 kg/m3
same,mass density,"283.15 K, 40000 kPa",825.9 ± 0.4 kg/m3
same,mass density,"283.15 K, 45000 kPa",828.8 ± 0.4 kg/m3
same,mass density,"293.15 K, 100 kPa",789.5 ± 0.2 kg/m3
same,mass density,"293.15 K, 5000 kPa",793.7 ± 0.3 kg/m3
same,mass density,"293.15 K, 10000 kPa",797.8 ± 0.3 kg/m3
same,mass density,"293.15 K, 15000 kPa",801.6 ± 0.3 kg/m3
same,mass density,"293.15 K, 20000 kPa",805.3 ± 0.3 kg/m3
same,mass density,"293.15 K, 25000 kPa",808.9 ± 0.3 kg/m3
same,mass density,"293.15 K, 30000 kPa",812.3 ± 0.4 kg/m3
same,mass density,"293.15 K, 35000 kPa",815.6 ± 0.4 kg/m3
same,mass density,"293.15 K, 40000 kPa",818.7 ± 0.4 kg/m3
same,mass density,"293.15 K, 45000 kPa",821.8 ± 0.4 kg/m3
same,mass density,"303.15 K, 100 kPa",780.9 ± 0.2 kg/m3
same,mass density,"303.15 K, 5000 kPa",785.3 ± 0.3 kg/m3
same,mass density,"303.15 K, 10000 kPa",789.6 ± 0.3 kg/m3
same,mass density,"303.15 K, 15000 kPa",793.7 ± 0.3 kg/m3
same,mass density,"303.15 K, 20000 kPa",797.5 ± 0.3 kg/m3
same,mass density,"303.15 K, 25000 kPa",801.3 ± 0.3 kg/m3
same,mass density,"303.15 K, 30000 kPa",804.8 ± 0.4 kg/m3
same,mass density,"303.15 K, 35000 kPa",808.2 ± 0.4 kg/m3
same,mass density,"303.15 K, 40000 kPa",811.5 ± 0.4 kg/m3
same,mass density,"303.15 K, 45000 kPa",814.7 ± 0.4 kg/m3
same,mass density,"313.15 K, 100 kPa",772.1 ± 0.2 kg/m3
same,mass density,"313.15 K, 5000 kPa",776.8 ± 0.3 kg/m3
same,mass density,"313.15 K, 10000 kPa",781.3 ± 0.3 kg/m3
same,mass density,"313.15 K, 15000 kPa",785.6 ± 0.3 kg/m3
same,mass density,"313.15 K, 20000 kPa",789.6 ± 0.3 kg/m3
same,mass density,"313.15 K, 25000 kPa",793.5 ± 0.4 kg/m3
same,mass density,"313.15 K, 30000 kPa",797.2 ± 0.4 kg/m3
same,mass density,"313.15 K, 35000 kPa",800.8 ± 0.4 kg/m3
same,mass density,"313.15 K, 40000 kPa",804.2 ± 0.4 kg/m3
same,mass density,"313.15 K, 45000 kPa",807.6 ± 0.5 kg/m3
same,mass density,"323.15 K, 100 kPa",763.3 ± 0.2 kg/m3
same,mass density,"323.15 K, 5000 kPa",768.3 ± 0.3 kg/m3
same,mass density,"323.15 K, 10000 kPa",773 ± 0.3 kg/m3
same,mass density,"323.15 K, 15000 kPa",777.6 ± 0.3 kg/m3
same,mass density,"323.15 K, 20000 kPa",781.8 ± 0.3 kg/m3
same,mass density,"323.15 K, 25000 kPa",785.9 ± 0.4 kg/m3
same,mass density,"323.15 K, 30000 kPa",789.7 ± 0.4 kg/m3
same,mass density,"323.15 K, 35000 kPa",793.5 ± 0.4 kg/m3
same,mass density,"323.15 K, 40000 kPa",797.1 ± 0.4 kg/m3
same,mass density,"323.15 K, 45000 kPa",800.5 ± 0.5 kg/m3
same,mass density,"333.15 K, 100 kPa",754 ± 0.2 kg/m3
same,mass density,"333.15 K, 5000 kPa",759.3 ± 0.3 kg/m3
same,mass density,"333.15 K, 10000 kPa",764.3 ± 0.3 kg/m3
same,mass density,"333.15 K, 15000 kPa",769.1 ± 0.3 kg/m3
same,mass density,"333.15 K, 20000 kPa",773.6 ± 0.3 kg/m3
same,mass density,"333.15 K, 25000 kPa",777.8 ± 0.4 kg/m3
same,mass density,"333.15 K, 30000 kPa",781.9 ± 0.4 kg/m3
same,mass density,"333.15 K, 35000 kPa",785.8 ± 0.4 kg/m3
same,mass density,"333.15 K, 40000 kPa",789.5 ± 0.5 kg/m3
same,mass density,"333.15 K, 45000 kPa",793.1 ± 0.5 kg/m3
same,mass density,"343.15 K, 100 kPa",744.5 ± 0.2 kg/m3
same,mass density,"343.15 K, 5000 kPa",750.1 ± 0.3 kg/m3
same,mass density,"343.15 K, 10000 kPa",755.5 ± 0.3 kg/m3
same,mass density,"343.15 K, 15000 kPa",760.5 ± 0.3 kg/m3
same,mass density,"343.15 K, 20000 kPa",765.3 ± 0.4 kg/m3
same,mass density,"343.15 K, 25000 kPa",769.8 ± 0.4 kg/m3
same,mass density,"343.15 K, 30000 kPa",774 ± 0.4 kg/m3
same,mass density,"343.15 K, 35000 kPa",778.1 ± 0.4 kg/m3
same,mass density,"343.15 K, 40000 kPa",782 ± 0.5 kg/m3
same,mass density,"343.15 K, 45000 kPa",785.7 ± 0.5 kg/m3
same,mass density,"353.15 K, 5000 kPa",740.6 ± 0.3 kg/m3
same,mass density,"353.15 K, 10000 kPa",746.4 ± 0.3 kg/m3
same,mass density,"353.15 K, 15000 kPa",751.7 ± 0.3 kg/m3
same,mass density,"353.15 K, 20000 kPa",756.7 ± 0.4 kg/m3
same,mass density,"353.15 K, 25000 kPa",761.5 ± 0.4 kg/m3
same,mass density,"353.15 K, 30000 kPa",766 ± 0.4 kg/m3
same,mass density,"353.15 K, 35000 kPa",770.2 ± 0.4 kg/m3
same,mass density,"353.15 K, 40000 kPa",774.3 ± 0.5 kg/m3
same,mass density,"353.15 K, 45000 kPa",778.2 ± 0.5 kg/m3
